The structures appear in SMILES notation.

In data set [1] the test system is WT and mutants (Leu to Ala, Leu to Val and Leu to Ile) of Brd2(2). Nature of the data set: ITC of compound into protein (FIG. 16). The settings on record: 250 μM compound into 25 μM protein; result in words. The format is binding, human. As to the method: To investigate the utility of the new compounds further, the inventors performed isothermal titration experiments by titrating 250 μM compound solutions (AL, ME-Am1, ET-Am1, ME-Am2, ET-Am2, 9-ME, 9-ET, 9-ME-Am1 and 9-ET-Am1) 25 μM protein solutions (WT and mutants (Leu to Ala, Leu to Val and Leu to Ile) of Brd2(2)).
ITC experiments were carried out on a ITC200 instrument from MicroCal™ Experiments were conducted at 3 different temperatures 15° C., 25° C. and 30° C., while stirring at 1000 rpm. Buffers of proteins, peptide and compounds were matched to 20 mM HEPES pH 7.5 at 25° C. and 100 mM NaCl. Frozen protein was buffer exchanged as described for the DSF experiments. Each titration comprised 1 initial injection of 0.4 μl lasting 0.8 s, followed by 19 injections of 2 μl lasting 4 s each at 2 min intervals. The initial injection was discarded during data analysis. Standard and reverse titrations were conducted depending on the binding partners.
All the data was fitted to a single binding site model using the Microcal LLC ITC200 Origin software provided by the manufacturer to yield enthalpies of binding (ΔH) and binding constants (Kas). Further thermodynamic parameters were calculated from these values (changes in entropy ΔS, changes in free energy AG and dissociation constants (Kds)).

The test system of data set [2] is Brd2(1) and (2) wild type and leucine to alanine, valine and isoleucine mutants. Nature of the data set: DSF thermal stabilization (FIG. 15). The format is binding, human. As to conditions: result in words. As to the method:
(§1) DSF assays were performed on a LightCycler®480 from Roche or a Mx3005P Real Time PCR machine from Stratagene. […] SYPRO®Orange from Invitrogen Molecular Probes® was used as a reporter dye to monitor the denaturing process of the proteins. Samples were assayed on a 96-well plate with final protein concentrations of 2 μM for the LightCycler®480 and 6 μM for Mx3005P. Compounds were added at a final concentration of 10 μM for the LightCycler®480 and 30 μM for Mx3005P, while the tetra acetylated histone peptide was added to a final concentration of 100 μM and 300 μM respectively. […] The temperature was raised with a step of 0.6° C. per minute from 37° C. to 95° C. with the LightCycler®480 collecting 39 measurements per ° C., and 1° C. per minute from 25° C. to 95° C. with Mx3005P, collecting fluorescence readings at the end of each interval. Each sample was run in triplicates.
(§2) Collected data was analysed by IGOR Pro 6, a scientific software tool from Wave Metrics, Inc. Analysis was done following the recommendations of Niesen et al.. Fluorescence intensity was plotted as a function of temperature, generating a sigmoidal curve described by a two-state transition from folded to unfolded protein. Curves were fitted by the following sigmoidal equation: […]
(§3) A1 and A2 are the values of minimum and maximum intensities, respectively, x0 is the inflection point and dx is the rate. Fitted curves were differentiated in IGOR Pro 6 and the maximum of the first derivative was identified using the same program. These values correspond to the inflection points of the transition curves and thus to the melting temperatures of the proteins (Tm).

In another data set the target is T1, brd4(2)L387A (Homo sapiens, UniProt O60885, L387A).
T1 construct: Plasmids of the eight single BET bromodomain constructs Brd2(1), Brd2(2), Brd3(1), Brd3(2), Brd4(1), Brd4(2), Brdt(1) and Brdt(2); His6 (N); made in house; host or cells: E. coli BL21(DE3)
Nature of the data set: DSF thermal shift. The format is binding. The settings on record: mutant.

A further data set has as its target T2, Brd4(1) (Homo sapiens, UniProt O60885).
T2 construct: Plasmids of the eight single BET bromodomain constructs Brd2(1), Brd2(2), Brd3(1), Brd3(2), Brd4(1), Brd4(2), Brdt(1) and Brdt(2); His6 (N); made in house; host or cells: E. coli BL21(DE3)
The data set is described as follows: DSF thermal shift. The format is binding. The settings on record: wild type.

A further data set has as its target T3, Brd4(2) (Homo sapiens, UniProt O60885).
T3 construct: Plasmids of the eight single BET bromodomain constructs Brd2(1), Brd2(2), Brd3(1), Brd3(2), Brd4(1), Brd4(2), Brdt(1) and Brdt(2); His6 (N); made in house; host or cells: E. coli BL21(DE3)
Nature of the data set: DSF thermal shift. The format is binding. The settings on record: wild type.

Another data set has as its target T4, Brd2(2) (Homo sapiens, UniProt P25440).
T4 construct: Plasmids of the eight single BET bromodomain constructs Brd2(1), Brd2(2), Brd3(1), Brd3(2); His6 (N); made in house; host or cells: E. coli BL21(DE3)
Nature of the data set: DSF thermal shift. The format is binding. As to conditions: wild type.

The next data set addresses T5, brd4(1)L094A (Homo sapiens, UniProt O60885, L94A).
T5 construct: Plasmids of the eight single BET bromodomain constructs Brd2(1), Brd2(2), Brd3(1), Brd3(2), Brd4(1), Brd4(2), Brdt(1) and Brdt(2); His6 (N); made in house; host or cells: E. coli BL21(DE3)
Nature of the data set: DSF thermal shift. The format is binding. As to conditions: mutant.

The next data set has as its target T6, Brd2(1) (Homo sapiens, UniProt P25440).
T6 construct: Plasmids of the eight single BET bromodomain constructs Brd2(1), Brd2(2), Brd3(1), Brd3(2); His6 (N); made in house; host or cells: E. coli BL21(DE3)
Nature of the data set: DSF thermal shift. The format is binding. As to conditions: wild type.

A further data set deals with Brd2(2)*(Leu383-Ala) (Homo sapiens, UniProt P25440, L383A). Nature of the data set: DSF thermal shift. The format is binding. Details: Plasmids of the eight single BET bromodomain constructs Brd2(1), Brd2(2), Brd3(1), Brd3(2); His6 (N); made in house; host or cells: E. coli BL21(DE3). As to conditions: mutant. As to the method: as §1, §2, §3
Chain of Brd2(2)*(Leu383-Ala) (P25440 344-453 L383A limits assumed): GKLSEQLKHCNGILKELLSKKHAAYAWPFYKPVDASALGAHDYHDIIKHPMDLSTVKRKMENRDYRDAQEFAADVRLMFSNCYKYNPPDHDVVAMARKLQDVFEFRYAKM
In another data set the target is Brd2(1)*(Leu110-Ala) (Homo sapiens, UniProt P25440, L110A). Nature of the data set: DSF thermal shift. The format is binding. The arrangement: Plasmids of the eight single BET bromodomain constructs Brd2(1), Brd2(2), Brd3(1), Brd3(2); His6 (N); made in house; host or cells: E. coli BL21(DE3). The settings on record: mutant. As to the method:
as §1, §2, §3

A short description of another data set: Solubility observations. As to conditions: observation in words.
Another data set deals with T7, Brd2(2)*(Met438-Leu) (Homo sapiens, UniProt P25440, M438L).
T7 construct: Plasmids of the eight single BET bromodomain constructs Brd2(1), Brd2(2), Brd3(1), Brd3(2); His6 (N); made in house; host or cells: E. coli BL21(DE3)
T7 sequence (P25440 344-453 M438L limits assumed): as the sequence (P25440 344-453 L383A limits assumed) above, with A40L, M95L counted along it
Nature of the data set: DSF thermal shift. The format is binding. The settings on record: mutant. Put shortly:
(§4)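 Proteins buffer-exchanged into 20 mM HEPES pH 7.5, 100 mM NaCl; SYPRO Orange reporter. Protein 2 or 6 µM with compound 10 or 30 µM (histone peptide 100 or 300 µM) on two instruments, ramped from 37 or 25 °C to 95 °C, triplicates. Tm from first-derivative maximum of sigmoidal fits.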

In the next data set the target is T8, Brd2(2)*(Met438-Ala) (Homo sapiens, UniProt P25440, M438A).
T8 construct: Plasmids of the eight single BET bromodomain constructs Brd2(1), Brd2(2), Brd3(1), Brd3(2); His6 (N); made in house; host or cells: E. coli BL21(DE3)
T8 sequence (P25440 344-453 M438A limits assumed): as the sequence (P25440 344-453 L383A limits assumed) above, with A40L, M95A counted along it
Nature of the data set: DSF thermal shift. The format is binding. The settings on record: mutant. Summed up:
as §4

For a further data set, the target named is T9, Brd2(1)*(Met165-Leu) (Homo sapiens, UniProt P25440, M165L).
T9 construct: Plasmids of the eight single BET bromodomain constructs Brd2(1), Brd2(2), Brd3(1), Brd3(2); His6 (N); made in house; host or cells: E. coli BL21(DE3)
T9 sequence (P25440 74-180 M165L limits assumed): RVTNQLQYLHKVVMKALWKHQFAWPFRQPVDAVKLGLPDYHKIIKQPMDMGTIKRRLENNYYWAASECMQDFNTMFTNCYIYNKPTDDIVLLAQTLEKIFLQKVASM
The data set is described as follows: DSF thermal shift. The format is binding. As to conditions: mutant. Put shortly: as §4

The target of a further data set is Brd2(1)*(Met165Ala) (Homo sapiens, UniProt P25440, M165A). Nature of the data set: DSF thermal shift. As to conditions: mutant. The format is binding. The arrangement: Plasmids of the eight single BET bromodomain constructs Brd2(1), Brd2(2), Brd3(1), Brd3(2); His6 (N); made in house; host or cells: E. coli BL21(DE3). Put shortly:
as §4

T4 sequence (P25440 344-453 limits assumed): as the sequence (P25440 344-453 L383A limits assumed) above, with A40L counted along it
T6 sequence (P25440 74-180 limits assumed): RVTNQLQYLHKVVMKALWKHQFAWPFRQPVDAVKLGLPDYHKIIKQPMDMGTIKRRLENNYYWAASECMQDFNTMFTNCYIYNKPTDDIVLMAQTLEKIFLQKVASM
Chain of Brd2(1)*(Leu110-Ala) (P25440 74-180 L110A limits assumed): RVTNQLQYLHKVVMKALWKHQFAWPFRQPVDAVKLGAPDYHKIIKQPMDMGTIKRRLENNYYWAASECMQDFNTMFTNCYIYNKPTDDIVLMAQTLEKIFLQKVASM
Chain of Brd2(1)*(Met165Ala) (P25440 74-180 M165A limits assumed): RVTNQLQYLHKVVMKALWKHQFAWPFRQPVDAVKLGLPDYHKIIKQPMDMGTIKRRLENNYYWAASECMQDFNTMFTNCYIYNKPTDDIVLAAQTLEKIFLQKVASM

As for `CCNC(=O)[C@H](CC)[C@@H]1N=C(c2ccc(Cl)cc2)c2ccc(OC)cc2-n2c(C)nnc21` (racemic) [Compound 9-ET-Am1, (+−) (R)-2-((S)-6-(4-chlorophenyl)-9-methoxy-1-methyl-4H-benzo[f][1,2,4]triazolo[4,3-a][1,4]diazepin-4-yl)-N-ethylbutanamide], the “Selectivity for Brd2(2) mutants relative to wild type by ITC (FIG. 16)” value in [1] is “higher selectivity for the mutants relative to wild types”. In data set [2], the “Thermal stabilization of Brd2 mutants versus wild types (FIG. 15)” value is reported as “smaller shifts”.
On to `CCC[C@H](C(=O)OC)[C@@H]1N=C(c2ccc(Cl)cc2)c2cc(OC)ccc2-n2c(C)nnc21` (racemic) [Compound 15, (+−)-Methyl (S)-2-((S)-6-(4-chlorophenyl)-8-methoxy-1-methyl-4H-benzo[f][1,2,4]triazolo[4,3-a][1,4]diazepin-4-yl)pentanoate], for which the “ΔTm Brd4(2)* (L387A)” value at brd4(2)L387A is 1.6 ± 0.3 K. For the same molecule, at Brd4(1), the “ΔTm Brd4(1)” value came to 0.6 ± 1.1 K. Also, the “ΔTm Brd4(2)” value on Brd4(2) was −0.5 ± 1.1 K. Also, the “ΔTm Brd2(2)” value at Brd2(2) stood at 0.5 ± 0.2 K. The “ΔTm Brd4(1)* (L094A)” value at brd4(1)L094A is recorded as 2.4 ± 1.3 K. The “ΔTm Brd2(1)” value on Brd2(1) turned out to be 0.1 ± 0.3 K. Further, the “ΔTm Brd2(2)*(Leu383-Ala)” value at Brd2(2)*(Leu383-Ala) is 1.4 ± 0.2 K. For the same molecule, at Brd2(1)*(Leu110-Ala), the “ΔTm Brd2(1)*(Leu110-Ala)” value is 0.9 ± 0.6 K.
Turning to `COC(=O)[C@@H](CC1CC1)[C@@H]1N=C(c2ccc(Cl)cc2)c2cc(OC)ccc2-n2c(C)nnc21` (racemic) [Compound 16, (+−)-methyl (S)-2-((S)-6-(4-chlorophenyl)-8-methoxy-1-methyl-4H-benzo[f][1,2,4]triazolo[4,3-a][1,4]diazepin-4-yl)-3-cyclopropylpropanoate], the “ΔTm Brd4(2)* (L387A)” value on brd4(2)L387A came out at 0.1 ± 0.1 K. In addition, on Brd4(1), the “ΔTm Brd4(1)” value is −0.4 ± 0.5 K. Also, the “ΔTm Brd4(2)” value at Brd4(2) was determined as 0.3 ± 0.9 K. The “ΔTm Brd2(2)” value at Brd2(2) is 1.1 ± 0.3 K. For the same molecule, the “ΔTm Brd4(1)* (L094A)” value on brd4(1)L094A is recorded as 1.3 ± 0.2 K. Further, the “ΔTm Brd2(1)” value on Brd2(1) is −0.5 ± 0.6 K. Further, the “ΔTm Brd2(2)*(Leu383-Ala)” value at Brd2(2)*(Leu383-Ala) stood at 2.3 ± 0.3 K. Also, the “ΔTm Brd2(1)*(Leu110-Ala)” value on Brd2(1)*(Leu110-Ala) is listed as 1.6 ± 1.0 K.
With `COC(=O)CC1N=C(c2ccc(Cl)cc2)c2cc(OC)ccc2-n2c(C)nnc21` (racemic) [I-BET-OMe, (+−)-methyl 2-(6-(4-chlorophenyl)-8-methoxy-1-methyl-4H-benzo[f][1,2,4]triazolo[4,3-a][1,4]diazepin-4-yl)acetate, reference compound], the “Thermal stabilization of Brd2 mutants versus wild types (FIG. 15)” value in data set [2] is recorded as “no selective stabilization of the mutant proteins”.
For the molecule `Cc1cccc(S(=O)(=O)Nc2ccc3c(c2)CN(C)C(=O)N3)c1` [Compound 53, 3-methyl-N-(3-methyl-2-oxo-1,2,3,4-tetrahydroquinazolin-6-yl)benzenesulfonamide], in “Solubility observations”, the Solubility entry is recorded as “low solubility”. In addition, the “ΔTm Brd2(2)” value on Brd2(2) came out at 0.7 ± 0.1 K. The “ΔTm Brd2(1)” value on Brd2(1) is listed as 0.0 ± 0.3 K. Also, the “ΔTm Brd2(2)*(Met165-Leu)” value on Brd2(2)*(Met438-Leu) stood at 0.0 ± 0.0 K. Moreover, the “ΔTm Brd2(2)*(Met165-Ala)” value on Brd2(2)*(Met438-Ala) is on record as 0.0 ± 0.1 K. For the same molecule, the “ΔTm Brd2(1)*(Met165-Leu)” value at Brd2(1)*(Met165-Leu) was found to be 0.0 ± 0.1 K. Besides, the “ΔTm Brd2(1)*(Met165-Ala)” value on Brd2(1)*(Met165Ala) amounted to 0.0 ± 0.1 K.
